Experiments:
USP11-D1D2 = molecular target: T1, USP11-D1D2 (Homo sapiens, UniProt P51784); experiment: SDS-gel deubiquitination of K63-polyubiquitinated Rsp5 (fluorescein-Ub); type: biochemical; settings: 1 μM enzyme, 25 mM Tris pH 7.5, 200 mM NaCl, 3 mM βME
T1 construct: catalytic core only: D1 and D2 segments joined by five residues (ASTSK), UBL2-IDR insert, DUSP and UBL1 removed; E. coli BL21 RIL, N-terminal His6 tag cut with TEV

USP11ΔDUSP = molecular target: T2, USP11ΔDUSP (Homo sapiens, UniProt P51784); experiment: SDS-gel deubiquitination of K48- and K63-polyubiquitinated Rsp5; type: biochemical; settings: K48- and K63-linked poly-ubiquitinated Rsp5 substrates
T2 construct: gene USP11; N-terminal DUSP domain removed; keeps UBL1, D1, UBL2-IDR, D2
T2 sequence (P51784 185-963 limits assumed, stated change not applied): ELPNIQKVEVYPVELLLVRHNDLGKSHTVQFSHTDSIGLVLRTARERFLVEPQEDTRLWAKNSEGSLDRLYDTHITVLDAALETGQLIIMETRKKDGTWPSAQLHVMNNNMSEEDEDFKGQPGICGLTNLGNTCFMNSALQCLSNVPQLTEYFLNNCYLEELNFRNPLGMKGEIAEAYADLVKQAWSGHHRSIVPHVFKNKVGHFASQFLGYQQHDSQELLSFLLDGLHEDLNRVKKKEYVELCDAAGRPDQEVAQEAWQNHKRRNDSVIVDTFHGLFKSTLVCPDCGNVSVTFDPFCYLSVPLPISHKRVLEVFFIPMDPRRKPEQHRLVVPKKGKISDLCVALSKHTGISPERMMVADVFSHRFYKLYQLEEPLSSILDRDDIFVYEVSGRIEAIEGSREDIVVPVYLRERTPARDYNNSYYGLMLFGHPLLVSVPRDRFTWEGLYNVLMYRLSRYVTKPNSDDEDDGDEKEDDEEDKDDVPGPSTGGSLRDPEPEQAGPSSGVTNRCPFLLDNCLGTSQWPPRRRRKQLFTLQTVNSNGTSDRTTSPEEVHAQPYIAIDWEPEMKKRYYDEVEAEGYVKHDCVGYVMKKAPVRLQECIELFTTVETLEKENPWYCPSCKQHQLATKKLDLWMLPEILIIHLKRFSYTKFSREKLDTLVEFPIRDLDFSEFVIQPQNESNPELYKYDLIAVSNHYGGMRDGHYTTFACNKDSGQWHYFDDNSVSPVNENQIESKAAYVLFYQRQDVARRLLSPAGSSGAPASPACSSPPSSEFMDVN

T1 sequence (P51784 286-490 limits assumed): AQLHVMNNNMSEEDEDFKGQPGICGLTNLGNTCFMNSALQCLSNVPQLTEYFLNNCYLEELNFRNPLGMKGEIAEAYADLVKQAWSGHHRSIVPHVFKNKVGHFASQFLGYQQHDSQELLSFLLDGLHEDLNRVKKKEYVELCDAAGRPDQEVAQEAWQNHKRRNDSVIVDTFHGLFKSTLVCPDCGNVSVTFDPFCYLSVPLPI
T1 sequence (P51784 735-930 limits assumed): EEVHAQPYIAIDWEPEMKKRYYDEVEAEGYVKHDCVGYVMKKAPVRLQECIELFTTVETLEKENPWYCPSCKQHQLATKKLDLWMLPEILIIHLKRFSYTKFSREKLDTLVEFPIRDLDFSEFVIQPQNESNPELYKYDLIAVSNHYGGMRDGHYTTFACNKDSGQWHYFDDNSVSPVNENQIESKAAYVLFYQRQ

Structure (SMILES) | IC50 (USP11-D1D2) [µM] | IC50 (USP11-D1D2; value printed collectively for the analogs) [µM] | SDS-gel deubiquitination of K48- and K63-polyubiquitinated Rsp5 (USP11ΔDUSP)
Oc1cc2c(cc1O)C(c1ccccc1)CNCC2 (centres unmarked) [SRF-02] | ~30 | – | SRF-01, SRF-02, SRF-03, and SRO-01 also inhibited the activity of USP11ΔDUSP
Cc1cc2c(s1)Nc1ccccc1N=C2N1CCN(C)CC1 [Olanzapine] | – | – | Fenoldopam and Olanzapine effectively disrupted the ability of USP11ΔDUSP to process both K48 and K63-linked
Oc1ccc(C2CNCCc3c2cc(O)c(O)c3Cl)cc1 (centres unmarked) [SRF-01] | – | ~30 | SRF-01, SRF-02, SRF-03, and SRO-01 also inhibited the activity of USP11ΔDUSP
Oc1ccc(C2CNCCc3c2cc(O)c(O)c3Cl)cc1 (centres unmarked) [Fenoldopam] | ~30 | – | Fenoldopam and Olanzapine effectively disrupted the ability of USP11ΔDUSP to process both K48 and K63-linked

Now from value to compound, other results behind:

IC50 (USP11-D1D2) [µM] | IC50 (USP11-D1D2; value printed collectively for the analogs) [µM] | Structure (SMILES) | SDS-gel deubiquitination of K48- and K63-polyubiquitinated Rsp5 (USP11ΔDUSP)
~30 | – | CN1CCc2cc(Cl)c(O)cc2[C@@H](c2ccccc2)C1 [SRF-03] | SRF-01, SRF-02, SRF-03, and SRO-01 also inhibited the activity of USP11ΔDUSP
~30 | – | Cc1cc2c(s1)Nc1ccccc1N=C2N1CC[N+](C)([O-])CC1 [SRO-01] | SRF-01, SRF-02, SRF-03, and SRO-01 also inhibited the activity of USP11ΔDUSP
